Assay results: patent US9242987B2, “Heterocyclyl pyrazolopyrimidine analogues as JAK inhibitors” (Cellzome Limited, priority 2009, dated 2016)

Columns and labels:
JAK2 = target: T1, JAK2 (Homo sapiens, UniProt O60674); assay: Kinobeads assay, JAK2; format: binding; conditions: mixed Molt4/Ramos cell lysate, dot blot detection
T1 construct: endogenous in cells; host or cells: Mixed Molt4/Ramos lysate (1:2)
Description: (§1) The compounds of the present invention as described in the previous examples were tested in a Kinobeads™ assay as described for ZAP-70 (WO-A 2007/137867). Briefly, test compounds (at various concentrations) and the affinity matrix with the immobilized aminopyrido-pyrimidine ligand 24 were added to cell lysate aliquots and allowed to bind to the proteins in the lysate sample. After the incubation time the beads with captured proteins were separated from the lysate. Bound proteins were then eluted and the presence of JAK2 and JAK3 was detected and quantified using specific antibodies in a dot blot procedure and the Odyssey infrared detection system. Dose response curves for individual kinases were generated and IC50 values calculated. Kinobeads™ assays for ZAP-70 (WO-A 2007/137867) and for kinase selectivity profiling (WO-A 2006/134056) have been previously described.
(§2) The affinity matrix was washed two times with 15 mL of 1×DP buffer containing 0.2% NP40 (IGEPAL® CA-630, Sigma, #13021) and then resuspended in 1×DP buffer containing 0.2% NP40 (3% beads slurry).
(§3) 5×DP buffer: 250 mM Tris-HCl pH 7.4, 25% Glycerol, 7.5 mM MgCl2, 750 mM NaCl, 5 mM Na3VO4; filter the 5×DP buffer through a 0.22 μm filter and store in aliquots at −80° C. The 5×DP buffer is diluted with H2O to 1×DP buffer containing 1 mM DTT and 25 mM NaF.
(§4) Stock solutions of test compounds were prepared in DMSO. In a 96 well plate 30 μL solution of diluted test compounds at 5 mM in DMSO were prepared. Starting with this solution a 1:3 dilution series (9 steps) was prepared. For control experiments (no test compound) a buffer containing 2% DMSO was used.
(§5) Molt4 cells (ATCC catalogue number CRL-1582) and Ramos cells (ATCC catalogue number CRL-1596) were grown in 1 L Spinner flasks (Integra Biosciences, #182101) in suspension in RPMI 1640 medium (Invitrogen, #21875-034) supplemented with 10% Fetal Bovine Serum (Invitrogen) at a density between 0.15×10^6 and 1.2×10^6 cells/mL. Cells were harvested by centrifugation, washed once with 1×PBS buffer (Invitrogen, #14190-094) and cell pellets were frozen in liquid nitrogen and subsequently stored at −80° C. Cells were homogenized in a Potter S homogenizer in lysis buffer: 50 mM Tris-HCl, 0.8% NP40, 5% glycerol, 150 mM NaCl, 1.5 mM MgCl2, 25 mM NaF, 1 mM sodium vanadate, 1 mM DTT, pH 7.5. One complete EDTA-free tablet (protease inhibitor cocktail, Roche Diagnostics, 1873580) per 25 mL buffer was added. The material was dounced 10 times using a mechanized POTTER S, transferred to 50 mL falcon tubes, incubated for 30 minutes on ice and spun down for 10 minutes at 20,000 g at 4° C. (10,000 rpm in Sorvall SLA600, precooled). The supernatant was transferred to an ultracentrifuge (UZ)-polycarbonate tube (Beckmann, 355654) and spun for 1 hour at 100.000 g at 4° C. (33.500 rpm in Ti50.2, precooled). The supernatant was transferred again to a fresh 50 mL falcon tube, the protein concentration was determined by a Bradford assay (BioRad) and samples containing 50 mg of protein per aliquot were prepared. The samples were immediately used for experiments or frozen in liquid nitrogen and stored frozen at −80° C.
(§6) Cell lysate (approximately 50 mg protein per plate) was thawed in a water bath at room temperature and then stored on ice. To the thawed cell lysate 1×DP 0.8% NP40 buffer containing protease inhibitors (1 tablet for 25 mL buffer; EDTA-free protease inhibitor cocktail; Roche Diagnostics 1873580) was added in order to reach a final protein concentration of 10 mg/mL total protein. The diluted cell lysate was stored on ice. Mixed Molt4/Ramos lysate was prepared by combining one volume of Molt4 lysate and two volumes of Ramos lysate (ratio 1:2).
(§7) To a 96 well filter plate (Multiscreen HTS, BV Filter Plates, Millipore #MSBVN1250) were added per well: 100 μL affinity matrix (3% beads slurry), […], of compound solution, and 50 μL of diluted lysate. […]

JAK3 = target: T2, JAK3 (Homo sapiens, UniProt P52333); assay: Kinobeads assay, JAK3; format: binding; conditions: mixed Molt4/Ramos cell lysate, dot blot detection
T2 construct: endogenous in cells; host or cells: Mixed Molt4/Ramos lysate (1:2)
T2 sequence (P52333 1-1124): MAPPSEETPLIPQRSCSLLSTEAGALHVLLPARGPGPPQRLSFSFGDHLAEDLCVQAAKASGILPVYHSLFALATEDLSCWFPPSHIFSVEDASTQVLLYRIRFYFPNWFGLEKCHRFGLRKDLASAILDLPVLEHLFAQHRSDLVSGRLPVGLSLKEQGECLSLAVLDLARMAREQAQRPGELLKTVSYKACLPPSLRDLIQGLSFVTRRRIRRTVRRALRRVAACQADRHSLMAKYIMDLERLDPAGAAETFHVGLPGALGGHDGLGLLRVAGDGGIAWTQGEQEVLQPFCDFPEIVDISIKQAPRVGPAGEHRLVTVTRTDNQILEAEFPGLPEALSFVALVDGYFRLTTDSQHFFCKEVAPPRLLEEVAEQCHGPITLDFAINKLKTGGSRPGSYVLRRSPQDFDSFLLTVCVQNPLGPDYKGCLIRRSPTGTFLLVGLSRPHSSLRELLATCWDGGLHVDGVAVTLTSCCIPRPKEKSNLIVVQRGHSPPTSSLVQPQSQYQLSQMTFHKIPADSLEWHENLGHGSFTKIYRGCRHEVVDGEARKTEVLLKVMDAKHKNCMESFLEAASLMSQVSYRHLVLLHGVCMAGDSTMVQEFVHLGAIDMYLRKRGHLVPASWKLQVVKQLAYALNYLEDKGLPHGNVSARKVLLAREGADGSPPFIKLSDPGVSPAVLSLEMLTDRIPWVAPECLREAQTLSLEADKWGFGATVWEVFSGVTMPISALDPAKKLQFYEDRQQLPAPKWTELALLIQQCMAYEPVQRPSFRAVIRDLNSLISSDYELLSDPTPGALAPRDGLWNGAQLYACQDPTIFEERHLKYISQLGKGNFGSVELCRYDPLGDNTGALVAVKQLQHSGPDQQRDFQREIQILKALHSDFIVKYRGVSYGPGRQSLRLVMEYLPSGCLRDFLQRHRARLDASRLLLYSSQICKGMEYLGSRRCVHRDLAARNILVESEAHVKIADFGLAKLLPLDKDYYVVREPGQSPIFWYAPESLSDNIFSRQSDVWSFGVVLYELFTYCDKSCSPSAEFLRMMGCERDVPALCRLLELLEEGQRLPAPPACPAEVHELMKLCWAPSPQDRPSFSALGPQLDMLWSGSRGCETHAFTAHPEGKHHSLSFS
Description: as §1, §2, §3, §4, §5, §6, §7

T1 sequence (O60674 whole entry): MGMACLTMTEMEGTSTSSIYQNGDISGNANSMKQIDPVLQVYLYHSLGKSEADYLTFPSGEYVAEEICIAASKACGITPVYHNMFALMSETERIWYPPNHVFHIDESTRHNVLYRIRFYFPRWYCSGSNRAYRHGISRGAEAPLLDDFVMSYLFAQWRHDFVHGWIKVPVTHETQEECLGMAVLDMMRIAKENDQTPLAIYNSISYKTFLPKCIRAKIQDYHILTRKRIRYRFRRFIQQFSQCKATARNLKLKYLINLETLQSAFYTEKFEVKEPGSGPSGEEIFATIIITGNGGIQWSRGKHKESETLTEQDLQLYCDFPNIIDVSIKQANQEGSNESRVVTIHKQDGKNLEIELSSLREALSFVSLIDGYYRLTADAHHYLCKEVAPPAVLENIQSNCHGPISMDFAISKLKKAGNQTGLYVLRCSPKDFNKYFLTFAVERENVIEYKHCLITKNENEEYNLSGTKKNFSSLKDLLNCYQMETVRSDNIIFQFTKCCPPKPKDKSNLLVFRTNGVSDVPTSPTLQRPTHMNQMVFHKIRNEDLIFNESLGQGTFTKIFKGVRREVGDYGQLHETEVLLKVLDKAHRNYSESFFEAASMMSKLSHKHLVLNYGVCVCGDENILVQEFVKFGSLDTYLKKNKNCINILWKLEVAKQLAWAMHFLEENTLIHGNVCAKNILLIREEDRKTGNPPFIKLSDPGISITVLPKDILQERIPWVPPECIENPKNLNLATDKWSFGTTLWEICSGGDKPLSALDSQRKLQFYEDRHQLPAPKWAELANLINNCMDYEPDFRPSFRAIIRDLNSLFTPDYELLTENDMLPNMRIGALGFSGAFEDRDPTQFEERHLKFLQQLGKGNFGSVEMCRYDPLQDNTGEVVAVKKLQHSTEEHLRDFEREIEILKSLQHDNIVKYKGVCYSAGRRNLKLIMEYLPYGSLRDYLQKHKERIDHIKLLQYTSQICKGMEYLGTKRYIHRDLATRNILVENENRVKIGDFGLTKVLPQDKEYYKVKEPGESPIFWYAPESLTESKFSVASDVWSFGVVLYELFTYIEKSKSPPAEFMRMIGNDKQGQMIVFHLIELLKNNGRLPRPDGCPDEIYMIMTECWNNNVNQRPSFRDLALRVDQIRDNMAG

| IC50 (JAK2) [nM] | IC50 (JAK3) [nM] | Structure (SMILES) |
| --- | --- | --- |
| ≥ 10000 | < 100 | COc1nn(CC(F)F)cc1Nc1ncc2cnn(Cc3ccccc3C#N)c2n1 [Example 24, 2-((6-(1-(2,2-Difluoroethyl)-3-methoxy-1H-pyrazol-4-ylamino)-1H-pyrazolo[3,4-d]pyrimidin-1-yl)methyl)benzonitrile] |
| 1000 to 10000 | < 100 | COCCn1cc(Nc2ncc3cnn(Cc4ccccc4F)c3n2)cn1 [Example 28, 1-(2-Fluorobenzyl)-N-(1-(2-methoxyethyl)-1H-pyrazol-4-yl)-1H-pyrazolo[3,4-d]pyrimidin-6-amine] |
| 1000 to 10000 | < 100 | Cn1cc(Nc2ncc3cnn(Cc4c(F)cccc4F)c3n2)cn1 [Example 29, 1-(2,6-Difluorobenzyl)-N-(1-methyl-1H-pyrazol-4-yl)-1H-pyrazolo[3,4-d]pyrimidin-6-amine] |
| < 100 | < 100 | OCCn1cc(Nc2ncc3cnn(Cc4cc(F)ccc4F)c3n2)cn1 [Example 32, 2-(4-(1-(2,5-Difluorobenzyl)-1H-pyrazolo[3,4-d]pyrimidin-6-ylamino)-1H-pyrazol-1-yl)ethanol] |
| 100 to 1000 | < 100 | OCCn1cc(Nc2ncc3cnn(Cc4cccc(F)c4F)c3n2)cn1 [Example 33, 2-(4-(1-(2,3-Difluorobenzyl)-1H-pyrazolo[3,4-d]pyrimidin-6-ylamino)-1H-pyrazol-1-yl)ethanol] |
| 100 to 1000 | < 100 | OCCn1cc(Nc2ncc3cnn(Cc4ccccc4F)c3n2)cn1 [Example 34, 2-(4-(1-(2-Fluorobenzyl)-1H-pyrazolo[3,4-d]pyrimidin-6-ylamino)-1H-pyrazol-1-yl)ethanol] |
| ≥ 10000 | 100 to 1000 | COc1nn(CC(F)F)cc1Nc1ncc2cnn(Cc3ccccc3C(N)=O)c2n1 [Example 36, 2-((6-(1-(2,2-Difluoroethyl)-3-methoxy-1H-pyrazol-4-ylamino)-1H-pyrazolo[3,4-d]pyrimidin-1-yl)methyl)benzamide] |
| ≥ 10000 | 100 to 1000 | Cc1c(Nc2ncc3cnn(Cc4ccccc4C#N)c3n2)cnn1C [Example 37, 2-((6-(1,5-Dimethyl-1H-pyrazol-4-ylamino)-1H-pyrazolo[3,4-d]pyrimidin-1-yl)methyl)benzonitrile] |
| ≥ 10000 | 100 to 1000 | COc1nn(CC(F)(F)F)cc1Nc1ncc2cnn(Cc3ccccc3C#N)c2n1 [Example 38] |
| 1000 to 10000 | 100 to 1000 | CNS(=O)(=O)c1ccc(-n2ncc3cnc(Nc4cnn(C)c4)nc32)cc1 [Example 40, N-Methyl-4-(6-(1-methyl-1H-pyrazol-4-ylamino)-1H-pyrazolo[3,4-d]pyrimidin-1-yl)benzenesulfonamide] |
| 1000 to 10000 | < 100 | NC(=O)c1ccccc1Cn1ncc2cnc(Nc3cnn(CC(F)F)c3)nc21 [Example 42, 2-((6-(1-(2,2-Difluoroethyl)-1H-pyrazol-4-ylamino)-1H-pyrazolo[3,4-d]pyrimidin-1-yl)methyl)benzamide] |

The next lines start with the molecule.

| Structure (SMILES) | IC50 (JAK2) [nM] | IC50 (JAK3) [nM] |
| --- | --- | --- |
| COCCn1cc(Nc2ncc3cnn(Cc4ccccc4C#N)c3n2)c(C)n1 [Example 23, 2-((6-(1-(2-methoxyethyl)-3-methyl-1H-pyrazol-4-ylamino)-1H-pyrazolo[3,4-d]pyrimidin-1-yl)methyl)benzonitrile] | ≥ 10000 | 100 to 1000 |
| N#Cc1ccccc1Cn1ncc2cnc(Nc3cnn(CCO)c3)nc21 [Example 25, 2-((6-(1-(2-Hydroxyethyl)-1H-pyrazol-4-ylamino)-1H-pyrazolo[3,4-d]pyrimidin-1-yl)methyl)benzonitrile] | 1000 to 10000 | < 100 |
| CC(c1ccccc1F)n1ncc2cnc(Nc3cnn(C)c3)nc21 (stereo not shown) [Example 26, 1-(1-(2-Fluorophenyl)ethyl)-N-(1-methyl-1H-pyrazol-4-yl)-1H-pyrazolo[3,4-d]pyrimidin-6-amine] | ≥ 10000 | 100 to 1000 |
| Cn1cc(Nc2ncc3cnn(Cc4ccccc4Cl)c3n2)cn1 [Example 27, 1-(2-Chlorobenzyl)-N-(1-methyl-1H-pyrazol-4-yl)-1H-pyrazolo[3,4-d]pyrimidin-6-amine] | 1000 to 10000 | < 100 |
| Cn1cc(Nc2ncc3cnn(Cc4cc(F)ccc4F)c3n2)cn1 [Example 30, 1-(2,5-Difluorobenzyl)-N-(1-methyl-1H-pyrazol-4-yl)-1H-pyrazolo[3,4-d]pyrimidin-6-amine] | < 100 | < 100 |
| Cn1cc(Nc2ncc3cnn(Cc4cccc(F)c4F)c3n2)cn1 [Example 31, 1-(2,3-Difluorobenzyl)-N-(1-methyl-1H-pyrazol-4-yl)-1H-pyrazolo[3,4-d]pyrimidin-6-amine] | 1000 to 10000 | < 100 |
| Cn1cc(Nc2ncc3cnn(-c4ccc(S(N)(=O)=O)cc4)c3n2)cn1 [Example 35, 4-(6-(1-Methyl-1H-pyrazol-4-ylamino)-1H-pyrazolo[3,4-d]pyrimidin-1-yl)benzenesulfonamide] | 1000 to 10000 | < 100 |
| N#Cc1ccccc1Cn1ncc2cnc(Nc3cnn(CC(F)F)c3)nc21 [Example 39, 2-((6-(1-(2,2-Difluoroethyl)-1H-pyrazol-4-ylamino)-1H-pyrazolo[3,4-d]pyrimidin-1-yl)methyl)benzonitrile] | 1000 to 10000 | < 100 |
| Cn1cc(Nc2ncc3cnn(Cc4ccccc4C(=O)O)c3n2)cn1 [Example 41, 2-((6-(1-Methyl-1H-pyrazol-4-ylamino)-1H-pyrazolo[3,4-d]pyrimidin-1-yl)methyl)benzoic acid] | 1000 to 10000 | 100 to 1000 |
